In ChEMBL document CHEMBL1129846, “Synthesis and antiproliferative activity of 2-O-allyl-1--D-arabinofuranosyl-uracil, -cytosine and -adenine” (Bioorg Med Chem Lett, 1997):

Legend:
Assay type in all cases: functional, cell-based
[1] = Compound was evaluated for its antiproliferative activity on human T-lymphocyte CEM cells; details: CCRF-CEM
L1210 = experiment: Tested for its antiproliferative activity on murine leukemia L1210 cells; details: Mus musculus
[2] = Compound was evaluated for its antiproliferative activity on human T-lymphocyte Molt4/C8 cells; details: MOLT-4

Row | Structure (SMILES) | IC50 [1] | IC50 (L1210) | IC50 [2]
1 | O=c1ccn([C@@H]2O[C@H](CO)[C@@H](O)[C@H]2O)c(=O)[nH]1 [URIDINE] | > 200 µM | > 200 µM | > 200 µM
2 | C=CCO[C@H]1[C@H](O)[C@@H](CO)O[C@H]1n1ccc(N)nc1=O | 127 µM | 127 µM | 588 µM
3 | C=CCO[C@H]1[C@H](O)[C@@H](CO)O[C@H]1n1ccc(=O)[nH]c1=O | > 500 µM | > 500 µM | > 500 µM
4 | Nc1ncnc2c1ncn2[C@@H]1O[C@H](CO)[C@@H](O)[C@@H]1O [VIDARABINE] | 24.8 µM | 14.2 µM | 11.9 µM
5 | Nc1ccn([C@@H]2O[C@H](CO)[C@@H](O)[C@@H]2O)c(=O)n1 [CYTARABINE] | 0.0037 µM | 0.031 µM | 0.03 µM
6 | C=CCO[C@H]1[C@H](O)[C@@H](CO)O[C@H]1n1cnc2c(N)ncnc21 | 72 µM | 250 µM | 88 µM
